Molecular target: AtCHI (Arabidopsis thaliana, UniProt P41088)
Conditions: cyclization of the chalcone; constant not given

AtCHI, sequence (P41088 whole entry): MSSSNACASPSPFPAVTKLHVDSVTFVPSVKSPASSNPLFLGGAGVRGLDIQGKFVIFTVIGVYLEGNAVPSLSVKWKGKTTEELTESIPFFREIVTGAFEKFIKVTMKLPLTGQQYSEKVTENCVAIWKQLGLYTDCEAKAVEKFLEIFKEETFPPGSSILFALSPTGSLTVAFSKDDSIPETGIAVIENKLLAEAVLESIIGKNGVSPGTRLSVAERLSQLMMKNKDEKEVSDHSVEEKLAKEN

For `O=C1C[C@@H](c2ccc(O)cc2)Oc2cc(O)cc(O)c21` [(2S)-naringenin], the CHI activity assay was “AtCHI catalyzes the in vitro formation of (2S)-naringenin”.

— PMC3880581 (Nature, 2012)
